Reference: patent US12466820B2, “Amino quinazoline derivatives as P2X3 inhibitors” (CHIESI FARMACEUTICI S.p.A., priority 2019, dated 2025)
pIC50: −log10 of the molar value. Counter-ions that a name gives are not always drawn.

Biological target: T1, h P2X3 (Homo sapiens, UniProt P56373)
T1 sequence (P56373 1-397): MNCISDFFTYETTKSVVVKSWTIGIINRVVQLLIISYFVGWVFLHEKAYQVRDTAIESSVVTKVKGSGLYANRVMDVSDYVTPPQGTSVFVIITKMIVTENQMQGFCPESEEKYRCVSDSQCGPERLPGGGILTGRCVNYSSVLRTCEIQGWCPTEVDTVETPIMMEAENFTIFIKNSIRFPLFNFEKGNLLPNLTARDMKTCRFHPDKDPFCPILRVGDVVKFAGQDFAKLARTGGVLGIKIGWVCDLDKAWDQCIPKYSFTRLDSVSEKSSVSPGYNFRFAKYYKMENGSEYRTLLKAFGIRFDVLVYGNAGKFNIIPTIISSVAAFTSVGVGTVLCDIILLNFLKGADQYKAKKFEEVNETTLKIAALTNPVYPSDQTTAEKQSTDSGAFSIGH
Assay: In vitro electrophysiology assay for P2X3 (automated whole-cell patch clamp, Sophion Qube)
Assay type: cell-based
Details: range of activity; for pIC50: Table 6, inhibition of P2X3 current, agonist α,β-MeATP (800 nM)
Protocol: Pharmacological Activity of the Compounds of the Invention In Vitro Electrophysiology Assay for P2X3
Cells expressing P2X3 receptors were grown according to standard practice and maintained at 37° C. in a 5% humidified CO2 atmosphere. The cells were seeded into T175 flask 2 days prior to the day of the assay and dissociated from the flasks using TrypLE when grown to confluence of 80-90%. The dissociated cells were resuspended in serum free media at a cell density of 3×10^6 cells/ml and loaded onto the Sophion Qube automated patch-clamp system. The extracellular assay buffer contained 145 mM NaCl, 4 mM KCl, 2 mM CaCl2), 1 mM MgCl2, 10 mM HEPES, and 10 mM glucose at pH 7.4. The intracellular assay solution contained 140 mM CsF, 10 mM NaCl, 10 mM EGTA, 10 mM HEPES at pH 7.2. Agonist stock solutions were prepared in H2O and diluted in bath solution prior to use. All antagonists were prepared as 10 mM stock solutions in DMSO and diluted in bath solution prior to use. All experiments were performed under the whole-cell patch clamp configuration at room temperature with 384 individual cells being voltage clamped at −60 mV simultaneously on the Sophion Qube instrument. Two baseline responses were established with the application of α,β-MeATP (800 nM), with the subsequent agonist applications being washed out using extracellular assay buffer containing 0.5 U/ml apyrase. Following the second agonist application, antagonist was incubated in the absence of α,β-MeATP for 10 minutes. After antagonist preincubation, 800 nM α,β-MeATP and antagonist were co-administered to determine the inhibitory effect of the antagonist. One concentration of an antagonist was assessed against a single cell, with different concentrations of the antagonist applied to other cells on the 384 recording substrate. The control P2X3 current amplitude was taken from the peak current amplitude from the second agonist response prior to preincubation with antagonist. The peak P2X3 current amplitude in the presence of antagonist was used to calculate the inhibitory effect at each concentration of the antagonist according to the following equation: […]
Concentration-response curves were constructed from ten different concentrations with each concentration of antagonist tested on at least two individual cells. The concentration of the antagonist to inhibit P2X3 current by 50% (IC50) was determined by fitting the data with the following equation: […]
Where ‘a’ is minimum response, ‘b’ is maximum response, ‘c’ is IC50 and ‘d’ is Hill slope.
The results for individual compounds are provided below in Table 6 and are expressed as range of activity.
The activity of the comparative examples A and B have been tested in the in vitro Electrophysiology Assay for P2X3 as described above.

| SMILES | pIC50 | h P2X3 (inhibition of P2X3 current evoked by 800 nM α,β-MeATP, 10 min antagonist preincubation, comparative examples) |
| --- | --- | --- |
| Cc1ccc(CNc2ncnc3c(OCC4COC4)cc(-c4ncc(C)s4)cc23)nn1 [Example 37, N-((6-methylpyridazin-3-yl)methyl)-6-(5-methylthiazol-2-yl)-8-(oxetan-3-ylmethoxy)quinazolin-4-amine] | > 6.50 |  |
| COc1cc(-c2ncc(C)s2)cc2c(NCc3ccn(C)c(=O)c3)ncnc12 [Example 115, 4-(((8-methoxy-6-(5-methylthiazol-2-yl)quinazolin-4-yl)amino)methyl)-1-methylpyridin-2(1H)-one] | > 6.50 |  |
| CN1CCC(CNc2ncnc3c(OCC(=O)O)cc(-c4ccc(F)cc4)cc23)CC1 [Example 57, 2-((6-(4-fluorophenyl)-4-(((1-methylpiperidin-4-yl)methyl)amino)quinazolin-8-yl)oxy)acetic Acid Hydrochloride] | 5.50 to 6.50 |  |
| Cc1ccc(CNc2ncnc3c(-c4ccnn4C)cc(-c4ccc(F)cc4)cc23)nn1 [Example 94, 6-(4-fluorophenyl)-8-(2-methylpyrazol-3-yl)-N-[(6-methylpyridazin-3-yl)methyl]quinazolin-4-amine] | 5.50 to 6.50 |  |
| COCCOc1cc(-c2ncc(C)s2)cc2c(NCc3ccc(C)nn3)ncnc12 [Example 35, 8-(2-methoxyethoxy)-N-((6-methylpyridazin-3-yl)methyl)-6-(5-methylthiazol-2-yl)quinazolin-4-amine] | > 6.50 |  |
| COc1cc(-c2ncc(C)cn2)cc2c(NC(C)c3nnc(C)s3)ncnc12 (single isomer, unassigned) [Example 125, 8-Methoxy-6-(5-methylpyrimidin-2-yl)-N-[1-(5-methyl-1,3,4-thiadiazol-2-yl)ethyl]quinazolin-4-amine] | > 6.50 |  |
| COc1cc(-c2ncc(C)cn2)cc2c(NCC(=O)N3CCOCC3)ncnc12 [Example 160, 2-((8-methoxy-6-(5-methylpyrimidin-2-yl)quinazolin-4-yl)amino)-1-morpholinoethan-1-one] | 4.50 to 5.50 |  |
| Cc1nnc([C@@H](C)Nc2ncnc3c(S(=O)(=O)N4CCOCC4)cc(-c4ccc(F)cc4)cc23)s1 (racemic) [Example 10, (Rac)-6-(4-fluorophenyl)-N-(1-(5-methyl-1,3,4-thiadiazol-2-yl)ethyl)-8-(morpholinosulfonyl)quinazolin-4-amine] | > 6.50 |  |
| COc1cc(-c2ncc(F)cn2)cc2c(N[C@H](C)c3ccc(C)nn3)ncnc12 [Example 4] | 5.50 to 6.50 |  |
| COc1cc(-c2ncc(C)cn2)cc2c(NC(C)c3nnc(C)o3)ncnc12 (single isomer, unassigned) [Example 128] | 4.50 to 5.50 |  |
| COc1cc(-c2ccc(C)cn2)cc2c(NCc3ccn(C)n3)ncnc12 [Example 141, 8-methoxy-N-[(1-methylpyrazol-3-yl)methyl]-6-(5-methyl-2-pyridyl)quinazolin-4-amine] | 5.50 to 6.50 |  |
| COc1cc(-n2ccc(C)n2)cc2c(N[C@H](C)c3ccc(C)nn3)ncnc12 [Example 103, (R)-8-methoxy-6-(3-methyl-1H-pyrazol-1-yl)-N-(1-(6-methylpyridazin-3-yl)ethyl)quinazolin-4-amine] | 5.50 to 6.50 |  |
| Cc1ccc(COc2ncnc3ncc(-c4ccc(F)cc4)cc23)cn1 [Comparative Example A, 6-(4-fluorophenyl)-4-[(6-methyl-3-pyridyl)methoxy]pyrido[2,3-d]pyrimidine, reference compound] |  | inactive |
| COc1cc(-c2ccc(F)cn2)cc2c(NC(C)c3nc(C)no3)ncnc12 (single isomer, unassigned) [Example 175, 6-(5-fluoropyridin-2-yl)-8-methoxy-N-(1-(3-methyl-1,2,4-oxadiazol-5-yl)ethyl)quinazolin-4-amine] | 5.50 to 6.50 |  |
| COc1cc(-c2ccc(F)cn2)cc2c(NC(C)c3ccc(C(F)(F)F)nn3)ncnc12 (single isomer, unassigned) [Example 170, 6-(5-fluoro-2-pyridyl)-8-methoxy-N-[1-[6-(trifluoromethyl)pyridazin-3-yl]ethyl]quinazolin-4-amine] | 5.50 to 6.50 |  |
| COc1cc(-c2ccc(F)cc2)cc2c(NC(C)c3cccc(=O)[nH]3)ncnc12 (stereo not shown) [Example 1, 6-(1-((6-(4-Fluorophenyl)-8-methoxyquinazolin-4-yl)amino)ethyl)pyridin-2(1H)-one] | > 6.50 |  |
| Cc1cnc(-c2cc(OC3CCOCC3)c3ncnc(NC(C)c4nnc(C)s4)c3c2)s1 (single isomer, unassigned) [Example 172, N-[1-(5-methyl-1,3,4-thiadiazol-2-yl)ethyl]-6-(5-methylthiazol-2-yl)-8-tetrahydropyran-4-yloxy-quinazolin-4-amine] | > 6.50 |  |
| COc1cc(-c2ccc(C)cn2)cc2c(NC(C)c3nc(C)no3)ncnc12 (single isomer, unassigned) [Example 162, 8-Methoxy-N-[1-(3-methyl-1,2,4-oxadiazol-5-yl)ethyl]-6-(5-methyl-2-pyridyl)quinazolin-4-amine] | 5.50 to 6.50 |  |
| COc1cc(-c2ncc(C)cn2)cc2c(NC(C)c3nc(-c4ccncc4)no3)ncnc12 (single isomer, unassigned) [Example 167, 8-methoxy-6-(5-methylpyrimidin-2-yl)-N-(1-(3-(pyridin-4-yl)-1,2,4-oxadiazol-5-yl)ethyl)quinazolin-4-amine] | 5.50 to 6.50 |  |
| COc1cc(-n2ccc(Cl)n2)cc2c(NC(C)c3cnc(C(F)(F)F)nc3)ncnc12 (stereo not shown) [Example 95, 6-(3-Chloro-1H-pyrazol-1-yl)-8-methoxy-N-(1-(2-(trifluoromethyl)pyrimidin-5-yl)ethyl)quinazolin-4-amine] | > 6.50 |  |
| COc1cc(-c2ccc(F)cc2)cc2c(N[C@@H](C)c3cnc(C(F)(F)F)nc3)ncnc12 [Example 185, 6-(4-fluorophenyl)-8-methoxy-N-[(1S)-1-[2-(trifluoromethyl)pyrimidin-5-yl]ethyl]quinazolin-4-amine formate] | > 6.50 |  |
| Cc1cnc(-c2cc(OC3CCOCC3)c3ncnc(NC(C)c4ccc(C)nn4)c3c2)nc1 (single isomer, unassigned) [Example 29, N-[1-(6-methylpyridazin-3-yl)ethyl]-6-(5-methylpyrimidin-2-yl)-8-tetrahydropyran-4-yloxy-quinazolin-4-amine] | 5.50 to 6.50 |  |
| Cc1nc([C@@H](C)Nc2ncnc3c(OC4CCOCC4)cc(-c4ccc(F)cn4)cc23)no1 [Example 82, 6-(5-fluoro-2-pyridyl)-N-[(1R)-1-(5-methyl-1,2,4-oxadiazol-3-yl)ethyl]-8-tetrahydropyran-4-yloxy-quinazolin-4-amine] | > 6.50 |  |
| Cc1cnc(-c2cc(OC3CCOCC3)c3ncnc(NC(C)c4nnc(C)s4)c3c2)s1 (single isomer, unassigned) [Example 171, N-[1-(5-methyl-1,3,4-thiadiazol-2-yl)ethyl]-6-(5-methylthiazol-2-yl)-8-tetrahydropyran-4-yloxy-quinazolin-4-amine] | 5.50 to 6.50 |  |
| COc1cc(-c2ncc(F)cn2)cc2c(NC(C)c3nc(C)no3)ncnc12 (stereo not shown) [Example 3, 6-(5-fluoropyrimidin-2-yl)-8-methoxy-N-(1-(3-methyl-1,2,4-oxadiazol-5-yl)ethyl)quinazolin-4-amine] | 5.50 to 6.50 |  |
| COc1cc(-c2ccc(C)cn2)cc2c(NCc3cc(C)on3)ncnc12 [Example 139, 8-methoxy-N-[(5-methylisoxazol-3-yl)methyl]-6-(5-methyl-2-pyridyl)quinazolin-4-amine] | > 6.50 |  |
| COc1cc(-c2ccc(F)cn2)cc2c(NCc3ccn(C)n3)ncnc12 [Example 140, 6-(5-fluoro-2-pyridyl)-8-methoxy-N-[(1-methylpyrazol-3-yl)methyl]quinazolin-4-amine] | 5.50 to 6.50 |  |
| COc1cc(-n2cc(Cl)cn2)cc2c(N[C@H](C)c3ccc(C)nn3)ncnc12 [Example 100, (R)-6-(4-chloro-1H-pyrazol-1-yl)-8-methoxy-N-(1-(6-methylpyridazin-3-yl)ethyl)quinazolin-4-amine] | > 6.50 |  |
